Measurements as given in US20110237677A1, “Inhibitors” (The University of Nottingham, priority 2008, published 2011).

What was measured:
myometrial strips [1] = test: Isometric tension recording, bradykinin-induced contractions of myometrial strips; assay type: cell-based, human; conditions: bradykinin 10^−8M; compared to control strips
Description: (§1) Longitudinal myometrial strips were mounted in an organ bath and contractile activity recorded as a measure of tensile force as previously described (Chanrachakul, Broughton-Pipkin et al., Am J Obstet Gynecol 192(2): 458-63, 2005). Myometrial contractions were initially stimulated by addition of oxytocin, bradykinin or phenylephrine (Sigma-Aldrich; 10^−10 mol/L, 10^−8 mol/L, 10^−8 mol/L respectively). Once rhythmic contractions had been achieved cumulative additions of cystamine (Sigma-Aldrich; 10^−8 to 10^−2 mol/L), mono-dansylcadaverine (MDC) (Sigma-Aldrich; 10^−8 to 10^−4 mol/L), cysteamine (Sigma-Aldrich; 10^−9 to 10^−2 mol/L), putrescine (Sigma-Aldrich; 10^−8 to 10^−4 mol/L) were added at 25 minute intervals. Contractile activity was determine by activity integral measured from 20 minutes time periods for each drug addition and analysed along with time-matched control myometrial strips under the same conditions but with vehicle additions (physiological salt solution).

[2] = system: Myometrial smooth muscle cells; test: Calcium mobilisation assay, oxytocin stimulated; assay type: cell-based, human; conditions: for effect on maximal calcium mobilisation: incubation with 10^−6M inhibitor, oxytocin stimulated; for Emax, maximal calcium mobilisation on oxytocin stimulation: pre-incubation for 10 minutes with 10^−6M inhibitor, FlexStation fluorescence
Method: Myometrial smooth muscle cells were grown in DMEM (Dulbecco's Modified Eagle Medium; Sigma-Aldrich) supplemented with 10% fetal calf serum, L-glutamine and 0.2% pen/strep at 37° C. 5% CO2, following dissociation in 2 mg/ml collagenase (Sigma-Aldrich). Once confluent cells were plated on black-walled flat-bottomed sterile 96-well plates (Costar) at a concentration of 10^5 cells/ml and in the same media makeup and again grown to confluence. Once confluent, cells were incubated in 100 μl media/well containing 2.5 mM probenecid (Sigma-Aldrich), 2.3 μM Fluo-4 (invitrogen) and 0.023% pluronic acid (Invitrogen) for one hour in the dark at 37° C. 5% CO2. Cells were then washed twice with phosphate buffered saline and finally incubated in 100 μl/well PSS (Chanrachakul, Broughton-Pipkin et al., Am J Obstet Gynecol 192(2): 458-63, 2005) containing 2.5 mM probenecid with or without 10^−6 mol/L cystamine, MDC or cysteamine for 10 minutes. Fluorescent readout was then recorded on FlexStation ([…]) over a 200 second period with oxytocin addition at 15 seconds (10^−11 to 10^−5 mol/L) and ionomycin, to measure maximal potential response, at 150 seconds (10^−6 mol/L; Sigma-Aldrich).

human myometrial tissue = test: Isometric tension recording, oxytocin-induced contractions of myometrial strips; assay type: cell-based; conditions: for EC50: Homo sapiens, inhibition of contractions stimulated with 10^−10M oxytocin, pooled experiments, cumulative additions, tissue 24 hours after elective caesarean; for effect on oxytocin-induced contractions: dose-dependent, 10^−10M oxytocin; for oxytocin-induced contractions after removal of the inhibitor by washing: washing with physiological salt solution, re-stimulation with oxytocin
Description: as §1

myometrial strips [3] = test: Isometric tension recording, phenylephrine-induced contractions of myometrial strips; assay type: cell-based, human; conditions: phenylephrine 10^−8M; compared to control strips
Description: as §1

myometrial strips [4] = test: Isometric tension recording, spontaneous contractions of myometrial strips; assay type: cell-based, human; conditions: 2 g tension, organ bath; dose-dependent
Method: FIG. 9 Diagrammatic representations showing that spontaneous contractions in myometrial strips are inhibited by cystamine (n=4), cysteamine (n=3) and MDC (n=2) in a dose-dependent manner. Control strips are shown with unbroken line (n=2). Tissue is used 24 hours following elective caesarean section and contractions are allowed to spontaneously initiate under 2 g tension and in a temperature controlled and oxygenated organ bath.
as §1

EC50 (human myometrial tissue) [µM]	SMILES	effect on bradykinin induced contractions (myometrial strips [1])	effect on maximal calcium mobilisation [2]	Emax, maximal calcium mobilisation on oxytocin stimulation [2]	contractility, % of untreated control myometrium (human myometrial tissue; MDC 10^−4M, contractions stimulated with 10^−10M oxytocin)	effect on oxytocin-induced contractions (human myometrial tissue)	oxytocin-induced contractions after removal of the inhibitor by washing (human myometrial tissue)	effect on phenylephrine induced contractions (myometrial strips [3])	effect on spontaneous contractions (myometrial strips [4])
22	CN(C)c1cccc2c(S(=O)(=O)NCCCCCN)cccc12 [MDC, Monodansylcadaverine]	inhibited in a dose dependent manner	significantly reduced	81.45	17.8%±6.2	inhibited	return to control levels	inhibited in a dose dependent manner	inhibited
1310	NCCSSCCN [cystamine]	inhibited in a dose dependent manner	significantly reduced	87.67	–	inhibited	return to control levels	inhibited in a dose dependent manner	inhibited
56.6	NCCCCN [putrescine]	–	–	–	–	inhibited	–	–	–
1.63	NCCS [cysteamine]	–	significantly reduced	98.95	–	inhibited	began to return to control levels	–	inhibited
